Data as given in PubChem BioAssay (NCI).
Where “and” joins values, the source holds several entries; their conditions need not be identical. Equal values may be shown once.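 Method: 48-hour compound exposure of cells in 96-well plates, five concentrations, linear interpolation of endpoints. GI50: concentration for 50% inhibition of growth. The concentration for full growth arrest is given as TGI.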

How the values were obtained:
Assay in all cases: NCI tumour cell line growth inhibition, 48 h
[1] = test system: M14 melanoma
[2] = test system: MDA-MB-231 breast
[3] = test system: SK-MEL-2 melanoma
[4] = test system: MDA-MB-435
[5] = test system: NCI-H23 lung
[6] = test system: 786-0 renal
[7] = test system: IGROV1 ovarian
[8] = test system: MALME-3M melanoma
[9] = test system: SNB-19 CNS
[10] = test system: NCI-H460 lung
[11] = test system: CCRF-CEM leukemia
[12] = test system: PC-3 prostate
[13] = test system: SF-539 CNS
[14] = test system: SK-OV-3 ovarian
[15] = test system: NCI-H522 lung
[16] = test system: OVCAR-3 ovarian
[17] = test system: A498 renal
[18] = test system: HOP-62 NSCLC
[19] = test system: NCI/ADR-RES ovarian
[20] = test system: UO-31 renal
[21] = test system: HOP-92 NSCLC
[22] = test system: BT-549 breast
[23] = test system: SNB-75 CNS
[24] = test system: T-47D breast
[25] = test system: RPMI-8226 leukemia
[26] = test system: ACHN renal
[27] = test system: KM12 colon
[28] = test system: SK-MEL-28 melanoma
[29] = test system: DU-145 prostate
[30] = test system: HCT-15 colon
[31] = test system: SR leukemia
[32] = test system: NCI-H226 lung
[33] = test system: SN12C renal
[34] = test system: SK-MEL-5 melanoma
[35] = test system: EKVX NSCLC
[36] = test system: OVCAR-5 ovarian
[37] = test system: MCF7 breast
[38] = test system: SW-620 colon
[39] = test system: OVCAR-8 ovarian
[40] = test system: COLO 205 colon
[41] = test system: TK-10 renal
[42] = test system: U251 CNS
[43] = test system: HCC-2998 colon
[44] = test system: CAKI-1 renal
[45] = test system: K-562 leukemia
[46] = test system: HCT-116 colon
[47] = test system: RXF 393 renal
[48] = test system: OVCAR-4 ovarian
[49] = test system: SF-295 CNS
[50] = test system: HS 578T breast
[51] = test system: UACC-257 melanoma
[52] = test system: HT29 colon
[53] = test system: SF-268 CNS

C=C/C=C/[C@@H](O)CC(=C)C[C@H]1OC2[C@H](C)[C@@H](OC(=O)C[C@H]3C[C@H](OC(C)=O)C[C@@]4(C[C@@](C)(O)C[C@H](CC(=C)[C@@H](C)[C@H](OC(C)=O)[C@H](C)C(=O)C[C@@H]5C[C@H](OC)CC6(C[C@@H](O)C[C@H](/C=C\CCC[C@H]7O[C@](O)(C=C[C@H]7C)[C@H]2O)O6)O5)O4)O3)[C@@H]1O
TGI [1]: 7.09 nM
GI50 [2]: 0.409 nM and 2.5 nM
TGI [2]: 3.62 nM
GI50 [3]: 2.5 nM
TGI [3]: 3.08 nM
GI50 [4]: < 2.5 nM
TGI [4]: < 2.5 nM
GI50 [5]: 0.475 nM and < 2.5 nM
TGI [5]: < 2.5 nM
GI50 [6]: 0.572 nM and 2.5 nM
TGI [6]: > 25000 nM
GI50 [7]: 1.58 nM and < 2.5 nM
TGI [7]: < 2.5 nM
GI50 [8]: 2.5 nM
GI50 [9]: 0.625 nM and 2.5 nM
TGI [9]: > 25000 nM
GI50 [10]: 0.798 nM and 2.5 nM
TGI [10]: 5.29 nM
GI50 [11]: 2.5 nM
TGI [11]: > 25000 nM
GI50 [12]: 2.5 nM
TGI [12]: > 25000 nM
GI50 [13]: < 2.5 nM
TGI [13]: < 2.5 nM
GI50 [14]: 0.465 nM and 2.5 nM
GI50 [15]: 0.825 nM and < 2.5 nM
TGI [15]: < 2.5 nM
GI50 [16]: < 2.5 nM
TGI [16]: < 2.5 nM
GI50 [17]: 0.388 nM and 2.5 nM
TGI [17]: 5.44 nM
GI50 [18]: 0.252 nM and 2.5 nM
TGI [18]: > 25000 nM
TGI [19]: 164 nM
TGI [20]: > 10900 nM
GI50 [21]: 22.7 nM and 2.5 nM
TGI [21]: 15100 nM
GI50 [22]: 2.5 nM
TGI [22]: > 25000 nM
GI50 [23]: > 25000 nM
TGI [23]: > 25000 nM
TGI [24]: > 25000 nM
GI50 [25]: 2.5 nM
TGI [25]: 82.1 nM
GI50 [26]: 4.72 nM and 8.56 nM
TGI [26]: > 25000 nM
GI50 [27]: 0.327 nM and 2.5 nM
TGI [28]: > 25000 nM
GI50 [29]: 1.2 nM and 2.5 nM
GI50 [30]: 6.19 nM and 2.5 nM
TGI [30]: > 9460 nM
GI50 [31]: 2.5 nM
TGI [31]: > 25000 nM
GI50 [32]: 0.503 nM and 2.5 nM
GI50 [33]: 0.339 nM and 2.5 nM
GI50 [34]: 0.327 nM and 2.5 nM
TGI [34]: 5.71 nM and 3.27 nM
TGI [35]: > 25000 nM
GI50 [36]: 2.93 nM and 2.5 nM
TGI [36]: > 25000 nM
GI50 [37]: < 2.5 nM
TGI [37]: < 2.5 nM
GI50 [38]: 1.23 nM and 2.5 nM
TGI [38]: > 25000 nM
GI50 [39]: 0.53 nM and 2.5 nM
GI50 [40]: 0.359 nM and < 2.5 nM
TGI [40]: < 2.5 nM
GI50 [41]: 1.62 nM and 2.5 nM
TGI [42]: > 25000 nM
GI50 [43]: 0.591 nM and < 2.5 nM
TGI [43]: 2.72 nM and < 2.5 nM
GI50 [44]: 5.38 nM and 2.5 nM
TGI [45]: > 25000 nM
TGI [46]: 11.2 nM
GI50 [47]: 2.5 nM
TGI [47]: 54.2 nM
GI50 [48]: 0.835 nM and 2.5 nM
TGI [48]: > 25000 nM
GI50 [49]: 0.492 nM and < 2.5 nM
TGI [49]: 2.9 nM and < 2.5 nM
GI50 [50]: 1.77 nM
TGI [50]: 8.2 nM
GI50 [51]: 2.48 nM
TGI [51]: > 25000 nM
GI50 [52]: 2.5 nM
GI50 [53]: 4.06 nM and 2.5 nM
TGI [53]: 41.3 nM and 277 nM
